According to patent US12128035B2, “Activating pyruvate kinase R” (Novo Nordisk Health Care AG, priority 2021, dated 2024):

How the values were obtained:
2,3-DPG blood levels = assay: Phase 1: blood 2,3-DPG in SCD patients; format: in vivo, human
Description: (§1) In this study, SAD/MAD cohorts are randomized (3 to 1) to receive Compound 1 or placebo (P). Compound 1 was evaluated first in 4 healthy SAD cohorts and 4 healthy MAD (14-day dosing period) cohorts. Based on the safety, and PK/PD profile from HS, Compound 1 is then evaluated in 1 SCD SAD cohort and 2 SCD MAD cohorts. Specifically, based on the safety and pharmacokinetic/pharmacodynamics (PK/PD) profile in healthy volunteer studies, Compound 1 is evaluated in patients (pts) with SCD, first in a single dose (SD or SAD) cohort and then in multiple-dose (MD or MAD) cohorts (14-day and 12-week). Safety assessments include AEs, vital signs, ECGs and laboratory parameters. PK/PD blood sampling was performed on Day 1 (SAD/MAD) and Day 14 (MAD) and up to 72 h after the last dose and at the end-of-study visit. PD parameters included 2,3-DPG, ATP, and p50 in all cohorts with additional PD studies (including oxygen scan) performed only in the SCD cohorts. PD parameters included 2,3-DPG, ATP, p50, RBC deformability with controlled deoxygenation and reoxygenation (Lorrca® oxygen scan) and varying osmolality (Lorrca® osmoscan)). To maintain study blind, pt identifiers were removed when needed.
(§2) The onset of the increase in ATP blood levels after a single 700 mg dose of Compound 1 was faster in SCD patients than in healthy volunteers, while the onset of the decrease in 2,3-DPG blood levels was slower.
(§3) The following procedures are employed for the analysis of ATP and 2,3-DPG in human whole blood K2EDTA using a protein precipitation extraction procedure and analysis by LC-MS/MS.
(§4) The following procedures are used for sample extraction prior to analysis via LC-MS/MS. 15.0 μL of the calibration standards, quality controls, matrix blanks, and samples are aliquoted into a 96-well plate. 50.0 μL of the internal standard spiking solution is added to all samples on the plate, with the exception of the matrix blank samples; 50.0 μL of water is added to the matrix blank samples. Subsequently, 150 μL of water is added to all samples on the plate. The plate is then covered and agitated by vortex at high speed for ten minutes, after which 750 μL of methanol is added to all samples on the plate. The plate is covered and agitated by vortex for approximately 1 minute. The plate is then centrifuged at approximately 3500 RPM at approximately 4° C. for five minutes. After centrifugation, a liquid handler is used to transfer 50 μL of each sample to a new 96-well plate, and 200 μL of acetonitrile is added to all samples on the plate. The newly prepared plate is covered and agitated by vortex for approximately 1 minute. The plate is then centrifuged at approximately 3500 RPM at approximately 4° C. for 2 minutes.

Human SCD cells = assay: Ex vivo sickling under hypoxic conditions; format: cell-based; settings: for Net % of Sickled Cells / % Protection: 10 μM
Description: Red blood cells from SCD patients were used to evaluate the effects of Compound 1 on Hgb affinity for oxygen (i.e., oxygen affinity) and sickling under hypoxic conditions. Cells were incubated at 37° C. for 1, 2, and 3 hr with HEPES buffered saline (HBS) (untreated), HBS+dimethyl sulfoxide (DMSO) (vehicle), or 10 μM Compound 1. To assess oxygen dissociation, Hgb oxygen equilibrium curves were collected during deoxygenation.
Compound 1 (10 μM) reduced cell sickling under severe hypoxic conditions of 2% oxygen (PO2 of <20 mmHg) for up to 20 min (Table 8).

ATP blood levels = assay: Phase 1: blood ATP in SCD patients; format: in vivo, human
Description: as §1, §2, §3, §4

[1] = SCD 300 mg QD, Day 1, 0 h after first daily dose
[2] = SCD 300 mg QD, Day 1, 24 h after first daily dose
[3] = SCD 300 mg QD, Day 14, 0 h after first daily dose
[4] = SCD 300 mg QD, Day 14, 6 h after first daily dose
[5] = SCD 300 mg QD, Day 14, 24 h after first daily dose
[6] = SCD 300 mg QD, Day 14, 48 h after first daily dose
[7] = SCD single 700 mg, 0 h after dose
[8] = SCD single 700 mg, 6 h after dose
[9] = SCD single 700 mg, 24 h after dose
[10] = SCD single 700 mg, 48 h after dose
[11] = SCD single 700 mg, 72 h after dose
[12] = SCD, 24 hours after single 700-mg dose, FIG. 46A

O=C([C@H](CO)c1ccccc1)N1CC2=C(C1)CN(S(=O)(=O)c1cnc3c(c1)OCCO3)C2 (single isomer, unassigned) [Compound 1]
mean percentage change in 2,3-DPG blood levels (2,3-DPG blood levels; [1]): 0%
mean percentage change in 2,3-DPG blood levels (2,3-DPG blood levels; [2]): −23%
mean percentage change in 2,3-DPG blood levels (2,3-DPG blood levels; [3]): −25%
mean percentage change in 2,3-DPG blood levels (2,3-DPG blood levels; [4]): −29%
mean percentage change in 2,3-DPG blood levels (2,3-DPG blood levels; [5]): −29%
mean percentage change in 2,3-DPG blood levels (2,3-DPG blood levels; [6]): −22%
mean percentage change in 2,3-DPG blood levels (2,3-DPG blood levels; [7]): 0%
mean percentage change in 2,3-DPG blood levels (2,3-DPG blood levels; [8]): −16%
mean percentage change in 2,3-DPG blood levels (2,3-DPG blood levels; [9]): −31%
mean percentage change in 2,3-DPG blood levels (2,3-DPG blood levels; [10]): −21%
mean percentage change in 2,3-DPG blood levels (2,3-DPG blood levels; [11]): −8%
lag of maximum decrease in blood 2,3-DPG behind maximum plasma concentration (2,3-DPG blood levels; SCD single 700 mg, FIG. 54B): about 24 hours
decrease in 2,3-DPG blood concentrations (2,3-DPG blood levels; [12]): 26%
Net % of Sickled Cells (Human SCD cells; 0 min in hypoxic conditions (DMSO 7)): 10%
% Protection (Human SCD cells; 2 min in hypoxic conditions): −15%
Net % of Sickled Cells (Human SCD cells; 2 min in hypoxic conditions (DMSO 41)): 47%
% Protection (Human SCD cells; 5 min in hypoxic conditions): 14%
Net % of Sickled Cells (Human SCD cells; 5 min in hypoxic conditions (DMSO 57)): 49%
% Protection (Human SCD cells; 10 min in hypoxic conditions): 11%
Net % of Sickled Cells (Human SCD cells; 10 min in hypoxic conditions (DMSO 61)): 54%
% Protection (Human SCD cells; 15 min in hypoxic conditions): 16%
Net % of Sickled Cells (Human SCD cells; 15 min in hypoxic conditions (DMSO 68)): 57%
Net % of Sickled Cells (Human SCD cells; 20 min in hypoxic conditions (DMSO 71)): 60%
% Protection (Human SCD cells; 20 min in hypoxic conditions (last time point)): 15%
percent protection (maximum) (Human SCD cells; severe hypoxic conditions of 2% oxygen): up to 16%
mean percentage change in ATP blood levels (ATP blood levels; [1]): 0%
mean percentage change in ATP blood levels (ATP blood levels; [2]): 14%
mean percentage change in ATP blood levels (ATP blood levels; [3]): 47%
mean percentage change in ATP blood levels (ATP blood levels; [4]): 44%
mean percentage change in ATP blood levels (ATP blood levels; [5]): 45%
mean percentage change in ATP blood levels (ATP blood levels; [6]): 35%
mean percentage change in ATP blood levels (ATP blood levels; [7]): 0%
mean percentage change in ATP blood levels (ATP blood levels; [8]): 14%
mean percentage change in ATP blood levels (ATP blood levels; [9]): 30%
mean percentage change in ATP blood levels (ATP blood levels; [10]): 30%
mean percentage change in ATP blood levels (ATP blood levels; [11]): 32%
lag of maximum increase in blood ATP behind maximum plasma concentration (ATP blood levels; SCD single 700 mg, FIG. 54A): at least 24 hours
increase in ATP blood concentrations (ATP blood levels; [12]): 30%
